The source of these data is patent US6673802B2, “Compounds specific to adenosine A3 receptor and uses thereof” (OSI Pharmaceuticals, Inc., priority 2000, dated 2004).

For one series, the target named is A1 adenosine receptor (Homo sapiens, UniProt P30542). As to conditions: cited from earlier work.
Series [1] has as its target T1, human A2a receptor subtype (Homo sapiens, UniProt P29274).
T1 construct: purchased Receptor Biology (Beltsville, Md.) RB-HA2a
Put plainly: Adenosine 2a receptor subtype competition radioligand binding ([3H]CGS-21680, HEK293 membranes). As to conditions: Table 13; probably % activity @ 10 μM (footnote 8).

A1 adenosine receptor, sequence (P30542 whole entry): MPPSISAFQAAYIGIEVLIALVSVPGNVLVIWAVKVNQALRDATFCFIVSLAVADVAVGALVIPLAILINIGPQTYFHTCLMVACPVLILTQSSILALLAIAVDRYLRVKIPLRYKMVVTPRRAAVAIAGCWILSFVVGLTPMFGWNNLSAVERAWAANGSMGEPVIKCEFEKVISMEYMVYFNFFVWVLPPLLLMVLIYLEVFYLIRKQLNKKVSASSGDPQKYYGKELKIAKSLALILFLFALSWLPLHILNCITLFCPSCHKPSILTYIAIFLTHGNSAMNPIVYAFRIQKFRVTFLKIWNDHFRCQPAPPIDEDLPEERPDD
T1 sequence (P29274 whole entry): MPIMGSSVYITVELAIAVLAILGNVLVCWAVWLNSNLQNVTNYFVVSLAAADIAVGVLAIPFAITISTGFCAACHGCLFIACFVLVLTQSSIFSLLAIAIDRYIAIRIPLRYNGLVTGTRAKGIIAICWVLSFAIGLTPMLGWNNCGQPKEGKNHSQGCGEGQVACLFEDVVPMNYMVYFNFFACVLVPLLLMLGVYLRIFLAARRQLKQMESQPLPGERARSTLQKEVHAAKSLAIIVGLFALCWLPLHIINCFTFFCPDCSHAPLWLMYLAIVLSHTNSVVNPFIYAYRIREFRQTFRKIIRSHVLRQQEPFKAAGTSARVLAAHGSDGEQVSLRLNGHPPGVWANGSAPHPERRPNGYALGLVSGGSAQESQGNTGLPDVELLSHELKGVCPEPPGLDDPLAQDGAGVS

Consider `CC(Cc1ccccc1)Nc1ncnc2c1ncn2[C@@H]1O[C@H](CO)[C@@H](O)[C@H]1O` (single isomer, unassigned; (-)) [PIA, (−)-N6-(2-phenylisopropyl)-adenosine], for which the reported affinity entry on A1 adenosine receptor is recorded as “approximately 50 nM”. As for `CNC(=O)NCCCNc1nc(-c2ccccc2)nc2[nH]c(C)c(C)c12` [Compound 1310], in series [1], the “A2a, value printed as %” value turned out to be 76%. Usually melting point stands for the temperature of the solid-liquid transition. Regarding `c1ccc(-c2nc(NCCc3cnc[nH]3)c3cc[nH]c3n2)cc1` [Compound 1720, [2-(3H-Imidazol-4-yl)-ethyl]-(2-phenyl-7H-pyrrolo[2,3-d]pyrimidin-4-yl)-amine], the melting point was 234 to 235 °C. Still for that read-out and setting: the figure for `CC(=O)NCCNc1nc(-c2ccccc2)nc2[nH]c(COc3ccccc3)cc12` [Example 17, 4-(2-acetylaminoethyl)amino-6-phenoxymethyl-2-phenyl-7H-pyrrolo[2,3d]pyrimidine] is 196 to 197 °C.
